Test results taken from US20220096454A1, “CARBOXYLIC ACID DERIVATIVES” (Merck Patent GmbH, priority 2018, published 2022).

Legend:
Tankyrases = conditions: read-out: EC50 [M] TNKS cellular assay; increase of Axin2 level in colon carcinoma cell line DLD1, 24 hours
Method: Measurement of Cellular Inhibition of Tankyrase
Cells of the colon carcinoma cell line DLD1 are plated in 96 well plates with 1.5×10^4 cells per well. Next day, cells are treated with a serial dilution of test compound in seven steps as triplicates with a final DMSO concentration of 0.3%. […] The amount of isolated Axin2 protein is determined in a Luminex^200 machine (Luminex Corporation) according to the manufacturer's instruction by counting 100 events per well. […] As controls cells are treated with solvent alone (neutral control) and with a Tankyrase reference inhibitor IWR-2 (3E−06 M) which refers as control for maximum increase of Axin2. For analysis, the obtained data are normalized against the untreated solvent control and fitted for determination of the EC50 values using the Assay Explorer software (Accelrys).

TNKS2 = target: T1, TNKS2 (Homo sapiens, UniProt Q9H2K2); experiment: TNKS2 activity ELISA (autoparsylation assay); assay type: biochemical; conditions: GST-tagged Tnks-2 (873-1166 aa), 10 μM bio-NAD, 1 hour at 30° C.
T1 construct: GST-tagged Tnks-2 (873-1166 aa, prepared in-house); made in house
T1 sequence (Q9H2K2 873-1166): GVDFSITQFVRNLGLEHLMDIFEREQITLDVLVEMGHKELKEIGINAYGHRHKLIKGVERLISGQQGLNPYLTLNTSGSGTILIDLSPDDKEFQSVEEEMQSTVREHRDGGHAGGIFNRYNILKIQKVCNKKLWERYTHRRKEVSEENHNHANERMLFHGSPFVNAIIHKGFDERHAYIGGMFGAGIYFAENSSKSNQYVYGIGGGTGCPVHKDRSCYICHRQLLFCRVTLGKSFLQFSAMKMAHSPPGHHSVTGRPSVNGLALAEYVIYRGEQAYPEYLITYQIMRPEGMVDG
Method: (§1) Description of the TNKS1 and TNKS2 ELISA Assay
(§2) Biochemical activity testing of TNKS 1 and 2: activity ELISA (Autoparsylation assay)
(§3) For analysis of autoparsylation activity of TNKS 1 and 2 an activity ELISA is performed: In the first step GST tagged TNKS is captured on a Glutathione coated plate. Then the activity assay with biotinylated NAD is performed in the absence/presence of the compounds. During the enzymatic reaction GST tagged TNKS transfers biotinylated ADP-ribose to itself from biotinylated NAD as co-substrate. For the detection streptavidin-HRP conjugate is added that binds to the biotinylated TNKS and is thereby captured to the plates. The amount of biotinylated resp. autoparsylated TNKS is detected with a luminescence substrate for HRP. The level of the luminescence signal correlates directly with the amount of autoparsylated TNKS and therefore with activity of TNKS.
(§4) The activity ELISA is performed in 384 well Glutathione coated microtiter plates (Express capture Glutathione coated plate, Biocat, Heidelberg, Germany). The plates are pre-equilibrated with PBS. […] The plates are washed 3 times with PBS-Tween-20. The wells are blocked by incubation at room temperature for 20 minutes with 50 μl blocking buffer (PBS, 0.05% Tween-20, 0.5% BSA). Afterwards the plates are washed 3 times with PBS-Tween-20. […] The reaction is stopped by 3 times washing with PBS-Tween-20. For the detection 50 μl of 20 ng/μl Streptavidin, HRP conjugate (MoBiTec, Göttingen, Germany) in PBS/0.05% Tween-20/0.01% BSA are added and the plates are incubated for 30 minutes at room temperature. After three times washing with PBS-Tween-20 50 μl of SuperSignal ELISA Femto Maximum sensitivity substrate solution (ThermoFisherScientific (Pierce), Bonn, Germany) are added. Following a 1 minute incubation at room temperature luminescence signals are measured with an Envision multimode reader (Perkin Elmer LAS Germany GmbH) at 700 nm. The full value used is the inhibitor-free reaction. […] The inhibitory values (IC50) are determined using either the program Symyx Assay Explorer® or Condosseo® from GeneData.

TNKS1 = target: T2, TNKS1 (Homo sapiens, UniProt O95271); experiment: TNKS1 activity ELISA (autoparsylation assay); assay type: biochemical; conditions: GST-tagged Tnks-1 (1023-1327 aa), 10 μM bio-NAD, 1 hour at 30° C.
T2 construct: GST-tagged Tnks-1 (1023-1327 aa, prepared in-house); made in house
T2 sequence (O95271 1023-1327): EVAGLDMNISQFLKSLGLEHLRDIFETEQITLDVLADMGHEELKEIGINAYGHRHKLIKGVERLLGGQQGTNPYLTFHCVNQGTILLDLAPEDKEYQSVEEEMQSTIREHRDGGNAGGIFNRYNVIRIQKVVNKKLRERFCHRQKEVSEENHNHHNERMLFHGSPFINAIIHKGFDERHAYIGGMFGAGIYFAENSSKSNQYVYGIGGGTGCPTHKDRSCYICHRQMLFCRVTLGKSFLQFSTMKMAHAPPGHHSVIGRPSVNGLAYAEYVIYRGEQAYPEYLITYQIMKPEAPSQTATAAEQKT
Method: as §1, §2, §3, §4

SMILES | EC50 (Tankyrases) | IC50 (TNKS2) | IC50 (TNKS1)
CN(C(=O)N1CCC(C(=O)c2ccc3cc(C(=O)O)n(C)c3c2)CC1)c1ccc(F)cc1 [Compound C1, 6-{1-[(4-Fluoro-phenyl)-methyl-carbamoyl]-piperidine-4-carbonyl}-1-methyl-1H-indole-2-carboxylic Acid] | 2.1e-07 M | 1.1 nM | 3.5 nM
CCN(C(=O)N1CCC(C(=O)c2ccc3cc(C(=O)O)n(C)c3c2)CC1)c1ccc(F)cc1 [Compound C2, 6-{1-[Ethyl-(4-fluoro-phenyl)-carbamoyl]-piperidine-4-carbonyl}-1-methyl-1H-indole-2-carboxylic Acid] | 1.9e-08 M | 0.49 nM | 0.67 nM
COc1ccc(N(C)C(=O)N2CCC(C(=O)c3ccc4cc(C(=O)O)n(C)c4c3)CC2)cc1 [Compound C3, 6-{1-[(4-Methoxy-phenyl)-methyl-carbamoyl]-piperidine-4-carbonyl}-1-methyl-1H-indole-2-carboxylic Acid] | 1.3e-07 M | 2.7 nM | 1.8 nM
CN(C(=O)N1CCC(C(=O)c2ccc3c(c2)cc(C(=O)O)n3C)CC1)c1ccc(F)cc1 [Compound C5, 5-{1-[(4-Fluoro-phenyl)-methyl-carbamoyl]-piperidine-4-carbonyl}-1-methyl-1H-indole-2-carboxylic acid] | 7.4e-08 M | 1.4 nM | 1 nM
CCN(C(=O)N1CCC(C(=O)c2ccc3c(c2)cc(C(=O)O)n3C)CC1)c1ccc(F)cc1 [Compound C6, 5-{1-[Ethyl-(4-fluoro-phenyl)-carbamoyl]-piperidine-4-carbonyl}-1-methyl-1H-indole-2-carboxylic Acid] | 5.9e-09 M | 1.4 nM | 0.41 nM
COc1ccc(N(C)C(=O)N2CCC(C(=O)c3ccc4c(c3)cc(C(=O)O)n4C)CC2)cc1 [Compound C7, 5-{1-[(4-Methoxy-phenyl)-methyl-carbamoyl]-piperidine-4-carbonyl}-1-methyl-1H-indole-2-carboxylic Acid] | 6.31e-08 M | 1.3 nM | 1.3 nM
CN(C(=O)N1CCC(C(=O)c2ccc3c(C(=O)O)nn(C)c3c2)CC1)c1ccc(F)cc1 [Compound C9, 6-{1-[(4-Fluoro-phenyl)-methyl-carbamoyl]-piperidine-4-carbonyl}-1-methyl-1H-indazole-3-carboxylic Acid] | 4.9e-06 M | 1.66 nM | 3.29 nM
CCN(C(=O)N1CCC(C(=O)c2ccc3c(C(=O)O)nn(C)c3c2)CC1)c1ccc(F)cc1 [Compound C10, 6-{1-[Ethyl-(4-fluoro-phenyl)-carbamoyl]-piperidine-4-carbonyl}-1-methyl-1H-indazole-3-carboxylic Acid] | 4.6e-07 M | 0.432 nM | 0.744 nM
COc1ccc(N(C)C(=O)N2CCC(C(=O)c3ccc4c(C(=O)O)nn(C)c4c3)CC2)cc1 [Compound C11, 6-{1-[(4-Methoxy-phenyl)-methyl-carbamoyl]-piperidine-4-carbonyl}-1-methyl-1H-indazole-3-carboxylic Acid] | 3.9e-06 M | 0.74 nM | 1.4 nM
CN(C(=O)N1CCC(C(=O)c2ccc3c(c2)c(C(=O)O)nn3C)CC1)c1ccc(F)cc1 [Compound C13, 5-{1-[(4-Fluoro-phenyl)-methyl-carbamoyl]-piperidine-4-carbonyl}-1-methyl-1H-indazole-3-carboxylic Acid] | – | 49.9 nM | 115 nM
CCN(C(=O)N1CCC(C(=O)c2ccc3c(c2)c(C(=O)O)nn3C)CC1)c1ccc(F)cc1 [Compound C14, 5-{1-[Ethyl-(4-fluoro-phenyl)-carbamoyl]-piperidine-4-carbonyl}-1-methyl-1H-indazole-3-carboxylic Acid] | 9.4e-06 M | 5.91 nM | 12.4 nM
COc1ccc(N(C)C(=O)N2CCC(C(=O)c3ccc4c(c3)c(C(=O)O)nn4C)CC2)cc1 [Compound C15, 5-{1-[(4-Methoxy-phenyl)-methyl-carbamoyl]-piperidine-4-carbonyl}-1-methyl-1H-indazole-3-carboxylic Acid] | 7.1e-06 M | 19 nM | 43 nM
CCN(C(=O)N1CCC(C(=O)c2ccc3c(c2)c(C(=O)O)nn3C)CC1)c1ccc(OC)cc1 [Compound C16, 5-{1-[Ethyl-(4-methoxy-phenyl)-carbamoyl]-piperidine-4-carbonyl}-1-methyl-1H-indazole-3-carboxylic Acid] | 9.7e-07 M | 4.5 nM | 9.7 nM
CN(C(=O)N1CCC(C(=O)c2ccc3cnn(C)c3c2)CC1)c1ccc(C(=O)O)cc1 [Compound C17, 4-{Methyl-[4-(1-methyl-1H-indazole-6-carbonyl)-piperidine-1-carbonyl]-amino}-benzoic Acid] | 2.07e-07 M | 0.798 nM | 1.32 nM
CN(C(=O)N1CCC(C(=O)c2ccc3cnn(C)c3c2)CC1)c1cccc(C(=O)O)c1 [Compound C19, 3-{Methyl-[4-(1-methyl-1H-indazole-6-carbonyl)-piperidine-1-carbonyl]-amino}-benzoic Acid] | 1.4e-06 M | 1.4 nM | 2.2 nM
CCN(C(=O)N1CCC(C(=O)c2ccc3cnn(C)c3c2)CC1)c1cccc(C(=O)O)c1 [Compound C20, 3-{Ethyl-[4-(1-methyl-1H-indazole-6-carbonyl)-piperidine-1-carbonyl]-amino}-benzoic Acid] | 1.93e-07 M | 0.65 nM | 0.58 nM
CN(C(=O)N1CCC(C(=O)c2ccc3cnn(C)c3c2)CC1)c1ccc(C(=O)O)nc1 [Compound C21, 5-{Methyl-[4-(1-methyl-1H-indazole-6-carbonyl)-piperidine-1-carbonyl]-amino}-pyridine-2-carboxylic Acid] | 1.5e-05 M | 14 nM | 37 nM
CN(C(=O)N1CCC(C(=O)c2ccc3c(cnn3C)c2)CC1)c1ccc(C(=O)O)cc1 [Compound C22, 4-{Methyl-[4-(1-methyl-1H-indazole-5-carbonyl)-piperidine-1-carbonyl]-amino}-benzoic Acid] | 3.46e-07 M | 3.9 nM | 7.6 nM
CN(C(=O)N1CCC(C(=O)c2ccc3c(cnn3C)c2)CC1)c1cccc(C(=O)O)c1 [Compound C24, 3-{Methyl-[4-(1-methyl-1H-indazole-5-carbonyl)-piperidine-1-carbonyl]-amino}-benzoic Acid] | 6.4e-07 M | 0.63 nM | 1.3 nM
CCN(C(=O)N1CCC(C(=O)c2ccc3c(cnn3C)c2)CC1)c1cccc(C(=O)O)c1 [Compound C25, 3-{Ethyl-[4-(1-methyl-1H-indazole-5-carbonyl)-piperidine-1-carbonyl]-amino}-benzoic Acid] | 4.87e-08 M | 0.89 nM | 1.8 nM
CN(C(=O)N1CCC(C(=O)c2ccc3ncn(C)c3c2)CC1)c1ccc(C(=O)O)cc1 [Compound C26, 4-{Methyl-[4-(3-methyl-3H-benzoimidazole-5-carbonyl)-piperidine-1-carbonyl]-amino}-benzoic Acid] | 1.1e-06 M | 0.62 nM | 1.5 nM
CN(C(=O)N1CCC(C(=O)c2ccc3ncn(C)c3c2)CC1)c1cccc(C(=O)O)c1 [Compound C28, 3-{Methyl-[4-(3-methyl-3H-benzimidazole-5-carbonyl)-piperidine-1-carbonyl]-amino}-benzoic Acid] | – | 23 nM | 53 nM
CCN(C(=O)N1CCC(C(=O)c2ccc3ncn(C)c3c2)CC1)c1cccc(C(=O)O)c1 [Compound C29, 3-{Ethyl-[4-(3-methyl-3H-benzimidazole-5-carbonyl)-piperidine-1-carbonyl]-amino}-benzoic Acid] | 4.75e-06 M | 3 nM | 3.4 nM
CN(C(=O)N1CCC(C(=O)c2ccc3c(c2)ncn3C)CC1)c1ccc(C(=O)O)cc1 [Compound C30, 4-{Methyl-[4-(1-methyl-1H-benzimidazole-5-carbonyl)-piperidine-1-carbonyl]-amino}-benzoic Acid] | 6e-06 M | 10 nM | 17 nM
CN(C(=O)N1CCC(C(=O)c2ccc3c(c2)ncn3C)CC1)c1cccc(C(=O)O)c1 [Compound C32, 3-{Methyl-[4-(1-methyl-1H-benzimidazole-5-carbonyl)-piperidine-1-carbonyl]-amino}-benzoic Acid] | – | 7.8 nM | 19 nM
